Experimental data as given in PMC7600679, “Benzoxazole-Based Metal Complexes to Reverse Multidrug Resistance in Bacteria” (Antibiotics, 2020).
≈ marks a conversion by molar mass, not a printed value. Where two headings read alike, the source gives them in different places.

What was measured:
S. aureus 272123 (MRSA) = assay: Minimum inhibitory concentration (broth microdilution, CLSI); format: cell-based, Staphylococcus aureus; settings: 18 h, visual inspection
Method: The compounds were further investigated against two Gram-positive strains, S. aureus ATCC 25923 (MSSA), used as the methicillin susceptible reference strain, and the methicillin- and ofloxacin-resistant S. aureus 272123 clinical isolate (MRSA), which was given by Prof. Dr. Leonard Amaral (Institute of Hygiene and Tropical Medicine, Lisbon, Portugal).
(§1) The minimum inhibitory concentrations (MICs) of compounds were determined in 96-well plates based on the Clinical and Laboratory Standard Institute guidelines (CLSI guidelines). The compounds were diluted in 100 μL of MHB. Then, 10^−4 dilution of an overnight bacterial culture in 100 μL of medium were added to each well, with the exception of the medium control wells.

E. coli AG100 A = assay: Real-time ethidium bromide accumulation (efflux pump inhibition); format: cell-based, Escherichia coli; settings: compounds at ¼ MIC, EB 1 μg/mL, minute 30
Method: Since multidrug resistance EPs are very important factors contributing to multidrug resistance (MDR) in both Gram-positive and Gram-negative bacteria, the inhibition of these pumps could reverse the resistant phenotype and restore the activity of antibiotics. The effect of compounds on ethidium bromide (EB) accumulation was determined by the automated EB method. This assay was used to determine how much of the fluorescent dye and pump substrate EB was accumulated by the bacterial cells in the presence of the tested compounds. The real-time accumulation of EB was monitored for 30 min in both S. aureus and E. coli strains.
The accumulation of the efflux pump substrate EB was monitored by the automated EB method using a LightCycler real-time thermocycler (LightCycler 1.5, Roche, Indianapolis, IN, USA). An aliquot of an overnight culture of the S. aureus strains in TSB medium was inoculated into fresh TSB medium, and it was incubated until it reached an optical density (OD) of 0.6 at 600 nm. In the case of E. coli strains, the medium applied in the assay was LB broth; the preparation of the inoculum was similar to the one of S. aureus. The cells were washed with phosphate buffered saline (PBS; pH 7.4) and centrifuged at 13,000 × g for 3 min, the pellets were re-suspended in PBS (pH 7.4), and the OD was calibrated to 0.6 at 600 nm. The compounds were measured at ¼ MIC concentration (in double-concentrated form) to the EB solution in PBS. The final concentration of EB was determined according to the MIC and the fluorescent signal produced by this amount of EB. In the case of all strains, the concentration of EB was 1 μg/mL. Then, 10 μL of the EB solution plus the compound were pipetted into standard glass capillary tubes of 20 µL maximum volume (Roche, Indianapolis, USA), and 10 μL of bacterial culture (OD of 0.6 at 600 nm) were transferred to the capillaries. The capillaries containing the samples were placed into the carousel, and the fluorescence was monitored at the FL-2 channel in every minute on a real-time basis.
Based on the data obtained, the relative fluorescence index (RFI) of the last time point (minute 30) was determined as follows:RFI = (RFtreated − RFuntreated)/RFuntreated(1) where RFtreated is the relative fluorescence (RF) at the last time point of the EB retention curve in the presence of an inhibitor, and RFuntreated is the relative fluorescence at the last time point of the EB retention curve of the untreated control having the solvent control (DMSO).

E. coli AG100 [1] = assay: Minimum inhibitory concentration (broth microdilution, CLSI); format: cell-based, Escherichia coli; settings: E. coli AG100, 18 h, visual inspection, read-out: MIC
Method: The strains were donated by Prof. Dr. Hiroshi Nikaido (Department of Molecular and Cell Biology and Chemistry, University of California, Berkeley, CA, USA).
as §1

E. coli AG100 [2] = assay: Resistance modulation (MIC reduction) assay with CIP and TET; format: cell-based, Escherichia coli; settings: compound at ¼ MIC, value is the MIC of ciprofloxacin
Method: The resistance modulation effects of compounds with ciprofloxacin (CIP) and tetracycline (TET) antibiotics were evaluated by the MIC reduction method on the Gram-negative E. coli AG100, AG100 A, and the Gram-positive S. aureus ATCC and MRSA strains.
The chemosensitizing activity of benzoxazole-type ligands and their metal complexes was determined based on the MIC values of the antibiotics in the presence of sub-inhibitory concentrations of the compounds (¼ MIC) in both Gram-negative and Gram-positive strains. The MICs were determined in strains by the two-fold broth microdilution method in 96-well plates, using serial dilutions of TET and CIP. The first four rows contained two-fold dilutions of antibiotics, and combinations of the TET and CIP and tested compounds were transferred into the last four rows. The 10^−4 dilution of an overnight bacterial culture in 50 μL of MHB was then measured to each well, except for the medium control wells. The plates were kept at 37 °C for 18 h. MIC values of antibiotics and their combination with tested compounds were detected by visual inspection.

[3] = system: MRC-5 human embryonal lung fibroblast cell line; assay: Cytotoxicity assay (MTT); format: cell-based
Method: The MRC-5 human embryonic lung fibroblast cell line (ATCC CCL-171; provider: LGC Promochem, Teddington, UK) was used in the experiments. The cells were cultivated in Eagle’s Minimal Essential Medium (EMEM; Sigma–Aldrich, St. Louis, MO, USA), supplemented with 1% non-essential amino acid mixture, 10% heat-inactivated fetal bovine serum, 2 mM L-glutamine, 1 mM Na-pyruvate, nystatin, and a penicillin–streptomycin mixture in concentrations of 100 U/L and 10 mg/L, respectively. The supplementary components were obtained from Sigma–Aldrich, St. Louis, MO, USA. The cell culture was kept in a humidified atmosphere (5% CO2, 95% air) at 37 °C.
The activity of increasing concentrations of the compounds on cell growth was determined in 96-well flat-bottomed microtiter plates by two-fold serial dilutions of the benzoxazole derivatives. The adherent human embryonic lung fibroblast cells (10^4/well) was seeded in EMEM medium in 96-well microtiter plates for 4 h prior to the assay. The serial dilutions of the compounds were made in a separate plate, and then pipetted to the plates containing the MRC-5 cell line. Culture plates were incubated at 37 °C for 24 h; at the end of the incubation period, 20 μL of MTT (3-(4,5-dimethylthiazol-2-yl)-2,5-diphenyltetrazolium bromide) solution (from a 5 mg/mL stock solution) was measured to each well. After the incubation at 37 °C for 4 h, 100 μL of sodium dodecyl sulfate (SDS) solution (10% SDS in 0.01 M HCl) was added to each well to dissolve the formazan crystals and the samples were further incubated at 37 °C overnight. Cell growth was calculated by measuring the OD at 540 nm (ref. 630 nm) with a Multiscan EX ELISA reader. The cytotoxicity was expressed as IC50 values, defined as the inhibitory dose that reduces the growth of the cells exposed to the tested compounds by 50%.

[4] = system: Enterobacter cloacae 31298; assay: Minimum inhibitory concentration (broth microdilution, CLSI); format: cell-based; settings: E. cloacae 31298
Method: The following bacterial strains were applied in the QS tests: C. violaceum 026 as sensor strain and E. cloacae 31298 isolated from clinical wound (used as N-acyl-homoserine lactone (AHL) producer); this strain induced pigment production by C. violaceum and is a model strain to study QS interactions.
as §1

Compound | MIC (S. aureus 272123 (MRSA)) [µM] | Relative fluorescence index (RFI) (E. coli AG100 A) | MIC (E. coli AG100 [1]) [µM] | CIP MIC in combination with compounds (E. coli AG100 [2]) [µM] | IC50 ([3]; 24 h) [µM] | MIC [4] [µM] | Cytotoxic effect (class in words) ([3]; 24 h) | MIC (S. aureus 272123 (MRSA); Staphylococcus aureus) [µM] | MIC (E. coli AG100 [1]; Escherichia coli) [µM] | IC50 ([3]; Homo sapiens, MRC5, 24 h) [µM] | MIC ([4]; Enterobacter cloacae) [µM]
[O-]C(=Cc1nc2ccccc2o1)C(F)(F)Cl.[O-]C(=Cc1nc2ccccc2o1)C(F)(F)Cl.[Zn+2] [Compound 5] | 3.125 | −0.19 | 50 | 0.016 | 24.6 | >100 |  |  |  |  | 
[Fe+3].[O-]C(=Cc1nc2ccccc2o1)C(F)(F)F.[O-]C(=Cc1nc2ccccc2o1)C(F)(F)F.[O-]C(=Cc1nc2ccccc2o1)C(F)(F)F [Compound 12] | 25 | 0.09 | >100 | 0.016 | > 100 | >100 | no (IC50 > 100 µM) |  |  |  | 
O=C(Cc1nc2ccccc2o1)C(F)F [Compound 3] | 50 (≈ 10.6 µg/mL) | −0.03 |  | 0.016 |  |  | moderate (IC50: 31–60) | 50 (≈ 10.6 µg/mL) | 50 (≈ 10.6 µg/mL) | 44.5 | > 100
